For this assay, the target named is T1, α-TTP (tocopherol transfer protein) (Homo sapiens, UniProt P49638).
T1 sequence (P49638 1-278): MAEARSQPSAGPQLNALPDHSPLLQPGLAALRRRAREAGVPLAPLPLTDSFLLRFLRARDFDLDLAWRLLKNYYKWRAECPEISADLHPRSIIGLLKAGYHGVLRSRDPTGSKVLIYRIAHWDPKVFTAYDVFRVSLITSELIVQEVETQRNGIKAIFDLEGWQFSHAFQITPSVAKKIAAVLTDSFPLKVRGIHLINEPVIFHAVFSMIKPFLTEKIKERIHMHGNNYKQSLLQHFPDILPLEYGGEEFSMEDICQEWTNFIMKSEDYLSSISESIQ
The assay can be described thus: fluorescence titration of purified α-TTP, one-site binding fit.

Broadly, the Kd is the free concentration of one partner at which half of the binding sites on the other are occupied at equilibrium, for simple one-to-one binding. High values mean lower affinity, low ones higher affinity. On to `CC1=CC(C)=[N+]2C1=Cc1ccc(CCCCCC[C@]3(C)CCc4c(C)c(O)c(C)c(C)c4O3)n1[B-]2(F)F` [10a, (R)-5,5-difluoro-7-(6-(6-hydroxy-2,5,7,8-tetramethylchroman-2-yl)hexyl)-1,3-dimethyl-5H-dipyrrolo[1,2-c:1′,2′-f][1,3,2]diazaborinin-4-ium-5-uide], for which the Kd stood at 232 ± 10 nM.

Values taken from article PMC2891523 (The Journal of organic chemistry, 2010).
